Reference: patent publication US8466166B2, “Benzimidazole derivatives as selective acid pump inhibitors” (Raqualia Pharma Inc., priority 2006, dated 2013)

The compounds below were run against T1, porcine gastric H+/K+-ATPase (Sus scrofa, UniProt P19156) (assay: Ion-leaky porcine gastric H+/K+-ATPase inhibition). Conditions: ion-leaky lyophilized porcine gastric vesicles, 5 mM KCl, pH 6.4, 37° C., 30 minutes; read-out: IC50 values of the inhibitory activity.
T1 construct: The gastric vesicles were collected from interface on 0.25 M sucrose layer containing 7% Ficoll; from tissue; host or cells: mucous membrane of fresh porcine stomachs (gastric vesicles)
T1 sequence (P19156 2-1034 limits assumed): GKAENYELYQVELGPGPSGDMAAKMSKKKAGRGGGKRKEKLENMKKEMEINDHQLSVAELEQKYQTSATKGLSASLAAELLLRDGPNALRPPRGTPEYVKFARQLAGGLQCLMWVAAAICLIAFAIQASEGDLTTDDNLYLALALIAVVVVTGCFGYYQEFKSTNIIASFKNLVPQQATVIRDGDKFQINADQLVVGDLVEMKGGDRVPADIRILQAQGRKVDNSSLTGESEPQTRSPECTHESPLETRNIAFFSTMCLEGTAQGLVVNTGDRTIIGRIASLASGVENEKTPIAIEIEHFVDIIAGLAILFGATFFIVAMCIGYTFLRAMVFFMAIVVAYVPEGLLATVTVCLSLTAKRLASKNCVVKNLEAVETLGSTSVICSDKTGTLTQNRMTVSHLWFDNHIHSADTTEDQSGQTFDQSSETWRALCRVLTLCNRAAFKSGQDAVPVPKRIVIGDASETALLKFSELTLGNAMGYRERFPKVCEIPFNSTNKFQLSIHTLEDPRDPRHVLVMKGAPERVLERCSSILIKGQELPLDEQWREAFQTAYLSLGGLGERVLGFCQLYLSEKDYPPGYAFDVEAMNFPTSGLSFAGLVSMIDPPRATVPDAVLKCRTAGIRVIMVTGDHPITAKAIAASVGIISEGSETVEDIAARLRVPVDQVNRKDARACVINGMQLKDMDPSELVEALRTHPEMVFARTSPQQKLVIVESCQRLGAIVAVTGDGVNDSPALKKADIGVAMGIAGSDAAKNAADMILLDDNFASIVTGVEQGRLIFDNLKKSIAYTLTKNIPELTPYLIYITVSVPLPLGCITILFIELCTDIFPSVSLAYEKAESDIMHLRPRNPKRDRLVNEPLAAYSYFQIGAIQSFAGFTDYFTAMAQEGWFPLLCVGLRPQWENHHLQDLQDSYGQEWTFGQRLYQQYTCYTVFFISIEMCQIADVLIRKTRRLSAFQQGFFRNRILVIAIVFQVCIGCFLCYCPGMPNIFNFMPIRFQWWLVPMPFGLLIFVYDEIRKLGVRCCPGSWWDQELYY
T1 sequence (P18434 whole entry partner): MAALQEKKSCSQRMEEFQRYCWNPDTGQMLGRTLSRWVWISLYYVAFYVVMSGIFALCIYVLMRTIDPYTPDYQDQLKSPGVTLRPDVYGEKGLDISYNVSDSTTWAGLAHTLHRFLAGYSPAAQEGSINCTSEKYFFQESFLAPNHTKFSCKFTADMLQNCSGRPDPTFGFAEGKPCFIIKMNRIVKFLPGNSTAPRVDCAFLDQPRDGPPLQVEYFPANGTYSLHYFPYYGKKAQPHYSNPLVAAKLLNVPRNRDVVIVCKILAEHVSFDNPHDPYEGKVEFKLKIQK
Format: biochemical
Method: The porcine gastric vesicles for Porcine gastric H^+/K^+-ATPase inhibition assays were prepared from mucous membrane in fresh porcine stomachs by homogenization with a tight-fitted polytetrafluoroethylene (Teflone®) homogenizer in 0.25 M sucrose at 4° C. The crude pellet was removed with centrifugation at 20,000 g for 30 min. Then supernatant was centrifuged at 100,000 g for 30 min. The resulting pellet was re-suspended in 0.25 M sucrose, and then subjected to density gradient centrifugation at 132,000 g for 90 min. The gastric vesicles were collected from interface on 0.25 M sucrose layer containing 7% Ficoll™ PM400 (Amersham Biosciences). This procedure was performed in a cold room.
Ion-leaky porcine gastric H^+/K^+-ATPase inhibition was measured according to the modified method described in Biochemical Pharmacology, 1988, 37, 2231-2236.
The isolated vesicles were lyophilized, and then kept in deep-freezer until use. For enzyme assay, lyophilized vesicles were reconstituted with 3 mM MgSO4 containing 40 mM Bis-tris (pH 6.4 at 37° C.).
Enzyme reaction was performed incubating 5 mM KCl, 3 mM Na2ATP, 3 mM MgSO4 and 1.0 μg of reconstituted vesicles for 30 minutes at 37° C. in a final 60 μl of reaction mixture (40 mM Bis-tris, pH 6.4) with or without the test compound. Enzyme reaction was stopped by adding 10% sodium dodecyl sulphate (SDS). Released inorganic phosphate from ATP was detected by incubation with mixture of 1 part of 35 mM ammonium molybdate tetrahydrate in 15 mM Zinc acetate hydrate and 4 parts of 10% ascorbic acid (pH 5.0), resulting in phosphomolybdate, which has optical density at 750 nm.

Row | SMILES | IC50 [nM]
1 | COCCn1c(C)nc2cc(C(=O)N(C)C)c3c(c21)OC(c1ccc(F)cc1)CC3 (racemic) [Example 5, 8-(4-Fluorophenyl)-1-(2-methoxyethyl)-N,N,2-trimethyl-1,6,7,8-tetrahydrochromeno[7,8-d]imidazole-5-carboxamide] | 88
2 | COCCn1c(C)nc2cc(C(=O)N(C)CCO)c3c(c21)OC(c1ccc(F)cc1F)CC3 (racemic) [Example 11, 8-(2,4-Difluorophenyl)-N-(2-hydroxyethyl)-1-(2-methoxyethyl)-N,2-dimethyl-1,6,7,8-tetrahydrochromeno[7,8-d]imidazole-5-carboxamide] | 210
3 | COCCn1c(C)nc2cc(C(=O)N3CCC3)c3c(c21)OC(c1ccccc1)CC3 (racemic) [Example 15, 5-(Azetidin-1-ylcarbonyl)-1-(2-methoxyethyl)-2-methyl-8-phenyl-1,6,7,8-tetrahydrochromeno[7,8-d]imidazole] | 200
4 | COCCn1c(C)nc2cc(C(=O)N(C)C)c3c(c21)OC(c1ccc(F)cc1)CC3 (single isomer, unassigned; (+)) [Example 6, (+)-8-(4-Fluorophenyl)-1-(2-methoxyethyl)-N,N,2-trimethyl-1,6,7,8-tetrahydrochromeno[7,8-d]imidazole-5-carboxamide] | 230
5 | COCCn1c(C)nc2cc(C(=O)N(C)CCO)c3c(c21)OC(c1ccc(F)cc1F)CC3 (single isomer, unassigned; (+)) [Example 13, (+)-8-(2,4-Difluorophenyl)-N-(2-hydroxyethyl)-1-(2-methoxyethyl)-N,2-dimethyl-1,6,7,8-tetrahydrochromeno[7,8-d]imidazole-5-carboxamide] | 340
6 | COCCn1c(C)nc2cc(C(=O)N3CCC3)c3c(c21)OC(c1ccccc1)CC3 (single isomer, unassigned; (+)) [Example 17, (+)-5-(Azetidin-1-ylcarbonyl)-1-(2-methoxyethyl)-2-methyl-8-phenyl-1,6,7,8-tetrahydrochromeno[7,8-d]imidazole] | 1000
7 | COCCn1c(C)nc2cc(C(=O)N(C)C)c3c(c21)OC(c1ccc(F)cc1)CC3 (single isomer, unassigned; (-)) [Example 7, (−)-8-(4-Fluorophenyl)-1-(2-methoxyethyl)-N,N,2-trimethyl-1,6,7,8-tetrahydrochromeno[7,8-d]imidazole-5-carboxamide] | 38
8 | COCCn1c(C)nc2cc(C(=O)N(C)CCO)c3c(c21)OC(c1ccc(F)cc1F)CC3 (single isomer, unassigned; (-)) [Example 12, (−)-8-(2,4-Difluorophenyl)-N-(2-hydroxyethyl)-1-(2-methoxyethyl)-N,2-dimethyl-1,6,7,8-tetrahydrochromeno[7,8-d]imidazole-5-carboxamide] | 90
9 | Cc1nc2cc(C(=O)N(C)C)c3c(c2n1CCCO)OC(c1ccc(F)cc1)CC3 (centres unmarked) [Example 8, 8-(4-Fluorophenyl)-1-(3-hydroxypropyl)-N,N,2-trimethyl-1,6,7,8-tetrahydrochromeno[7,8-d]imidazole-5-carboxamide] | 340
10 | Cc1nc2cc(C(=O)N(C)C)c3c(c2n1Cc1ccon1)OC(c1ccc(F)cc1)CC3 (centres unmarked) [Example 9, 8-(4-Fluorophenyl)-1-(isoxazol-3-ylmethyl)-N,N,2-trimethyl-1,6,7,8-tetrahydrochromeno[7,8-d]imidazole-5-carboxamide] | 350
11 | COCCn1c(C)nc2cc(C(=O)N3CC(F)C3)c3c(c21)OC(c1ccccc1)CC3 (centres unmarked) [Example 14, 5-[(3-Fluoroazetidin-1-yl)carbonyl]-1-(2-methoxyethyl)-2-methyl-8-phenyl-1,6,7,8-tetrahydrochromeno[7,8-d]imidazole] | 270

Further lines, results first:

Row | IC50 [nM] | SMILES
12 | 98 | COCCn1c(C)nc2cc(C(=O)N(C)C)c3c(c21)OC(c1ccccc1)CC3 (racemic) [Example 1, 1-(2-Methoxyethyl)-N,N,2-trimethyl-8-phenyl-1,6,7,8-tetrahydrochromeno[7,8-d]imidazole-5-carboxamide]
13 | 520 | COCCn1c(C)nc2cc(C(=O)N(C)C)c3c(c21)OC(c1ccccc1)CC3 (single isomer, unassigned; (+)) [Example 2, (+)-1-(2-Methoxyethyl)-N,N,2-trimethyl-8-phenyl-1,6,7,8-tetrahydrochromeno[7,8-d]imidazole-5-carboxamide]
14 | 68 | COCCn1c(C)nc2cc(C(=O)N(C)C)c3c(c21)OC(c1ccccc1)CC3 (single isomer, unassigned; (-)) [Example 3, (−)-1-(2-Methoxyethyl)-N,N,2-trimethyl-8-phenyl-1,6,7,8-tetrahydrochromeno[7,8-d]imidazole-5-carboxamide]
15 | 74 | COCCn1c(C)nc2cc(C(=O)N3CCC3)c3c(c21)OC(c1ccccc1)CC3 (single isomer, unassigned; (-)) [Example 16, (−)-5-(Azetidin-1-ylcarbonyl)-1-(2-methoxyethyl)-2-methyl-8-phenyl-1,6,7,8-tetrahydrochromeno[7,8-d]imidazole]
16 | 190 | COCCn1c(C)nc2cc(C(=O)N(C)CCO)c3c(c21)OC(c1ccccc1)CC3 (centres unmarked) [Example 4, N-(2-Hydroxyethyl)-1-(2-methoxyethyl)-N,2-dimethyl-8-phenyl-1,6,7,8-tetrahydrochromeno[7,8-d]imidazole-5-carboxamide]
17 | 100 | [2H]C([2H])([2H])N(C(=O)c1cc2nc(C)n(CCOC)c2c2c1CCC(c1ccccc1)O2)C([2H])([2H])[2H] (centres unmarked) [Example 10, N,N-Di[^2H3]methyl-1-(2-methoxyethyl)-2-methyl-8-phenyl-1,6,7,8-tetrahydrochromeno[7,8-d]imidazole-5-carboxamide]
